# Measured values: US8809364B2, “Polycyclic aryl substituted triazoles and polycyclic heteroaryl substituted triazoles useful as axl inhibitors” (priority 2007, dated 2014)
# Molecular target: T1, Axl (Homo sapiens, UniProt P30530)
# T1 construct: endogenous in cells; host or cells: HeLa cells
# T1 sequence (P30530 26-894): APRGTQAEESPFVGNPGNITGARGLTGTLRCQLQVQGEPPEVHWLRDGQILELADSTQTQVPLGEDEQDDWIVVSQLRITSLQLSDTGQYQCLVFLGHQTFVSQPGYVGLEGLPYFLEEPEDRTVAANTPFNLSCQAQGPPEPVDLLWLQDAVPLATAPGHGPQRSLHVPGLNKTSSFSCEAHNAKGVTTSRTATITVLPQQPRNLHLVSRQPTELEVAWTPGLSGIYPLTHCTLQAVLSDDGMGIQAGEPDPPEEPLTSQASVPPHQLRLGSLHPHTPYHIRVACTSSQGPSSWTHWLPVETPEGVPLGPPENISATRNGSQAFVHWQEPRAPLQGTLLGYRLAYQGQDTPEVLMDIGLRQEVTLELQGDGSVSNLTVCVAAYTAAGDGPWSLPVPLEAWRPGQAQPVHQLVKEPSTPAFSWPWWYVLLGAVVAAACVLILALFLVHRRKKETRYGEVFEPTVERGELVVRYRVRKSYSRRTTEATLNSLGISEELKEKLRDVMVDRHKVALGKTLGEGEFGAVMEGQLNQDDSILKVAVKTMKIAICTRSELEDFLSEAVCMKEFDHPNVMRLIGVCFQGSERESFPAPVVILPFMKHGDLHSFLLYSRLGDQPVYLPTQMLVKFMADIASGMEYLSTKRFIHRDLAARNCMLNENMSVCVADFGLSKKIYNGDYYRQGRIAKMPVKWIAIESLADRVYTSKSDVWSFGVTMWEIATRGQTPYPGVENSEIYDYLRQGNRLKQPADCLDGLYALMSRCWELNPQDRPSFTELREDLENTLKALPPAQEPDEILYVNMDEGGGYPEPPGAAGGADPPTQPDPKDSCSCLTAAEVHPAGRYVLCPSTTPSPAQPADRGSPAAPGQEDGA
# Assay: Phospho-Akt In-Cell Western Assay (inhibition of Axl activity)
# Type: cell-based
# Conditions: Hela cells, Axl antibody cross-linking stimulation, phospho-Akt chemiluminescence normalized to cell number; compound of formula (Ib), Table 2
# Experimental: The compounds of the invention were tested in the following assay for their ability to inhibit Axl activity.
# Phospho-Akt In-Cell Western Assay
# • Cell culture plate: 96 well assay plate (Corning 3610), white, clear bottom, tissue-culture treated. • Cells: Hela cells. • Starvation medium: For Axl stimulation: 0.5% FCS (fetal calf serum) in DMEM, plus Axl/Fc (extracellular domain of AXL fused to immunoglobulin Fc region) (R&D, 154-AL) 500 ng/mL. • For EGF (epidermal growth factor) stimulation: 0.5% FCS in DMEM (Dulbecco's modified Eagles medium). • Poly-L-Lysine 0.01% solution (the working solution): 10 μg/ml, dilute In PBS (phosphate buffered saline). • Axl antibody cross-linking: • 1st: Mouse anti-Axl (R&D, MAB154). • 2nd: Biotin-SP-conjugated AffiniPure goat anti-mouse IgG (H+L) (Jackson ImmunoResearch #115-065-003). • Fixing buffer: 4% formaldehyde in PBS. • Wash buffer: 0.1% TritonX-100 in PBS. • Quenching buffer: 3% H2O2, 0.1% Azide in wash buffer, Azide and hydrogen peroxide (H2O2) are added fresh. • Blocking buffer: 5% BSA in TBST (tris buffered saline plus 0.1% Tween 20). • Primary antibody: Rabbit anti-human Phospho-Akt antibody (Cell Signaling 9271): 1×250 diluted in blocking buffer. • Secondary antibody: HRP (horse radish peroxidase)-conjugated Goat anti-Rabbit secondary, stock solution: Jackson ImmunoResearch (Goat anti-Rabbit HRP, #111-035-144) 1:1 diluted in glycerol, store at −20° C. The working solution: 1×2000 dilution of stock in blocking buffer. • Chemiluminescent working solution (Pierce, 37030): SuperSignal ELISA (enzyme linked immunosorbant assay) Pico Chemiluminescent substrate. • Crystal Violet solution: Stock: 2.5% Crystal violet in methanol, filtered and kept at ambient temperature. The working solution: dilute the stock 1:20 with PBS immediately before use. • 10% SDS: working solution: 5% SDS (sodium dodecylsulfate), diluted in PBS Methods: Day 1:
# A 96 well TC (tissue culture treated) plate was coated with 10 μg/mL poly-L-Lysine at 37° C. for 30 min, washed twice with PBS, and air-dried for 5 minutes before cells were added. Hela cells were seeded at 10,000 cells/well and the cells were starved in 100 μL starvation medium containing Axl/Fc for 24 hrs.
# The cells were pre-treated with test compounds by adding 100 μL of 2× test compound to the starvation medium on the cells. The cells were incubated at 37° C. for 1 hr before stimulation.
# The cells were stimulated by Axl-antibody cross-linking as follows: A 5×1^St/2nd Axl antibody mixture was made (37.5 μg/mL 1st/100 μg/mL 2nd) in starvation medium and nutated at 4° C. with thorough mixing for 1-2 hours for clustering. The resulting mix was warmed to 37° C. 50 μL of 5×Axl 1st/2nd of antibody cluster was added to the cells and the cells were incubated at 37° C. for 5 min.
# After 5 minutes stimulation, the plate was flicked to remove medium and the plate was tapped onto paper towels. Formaldehyde (4.0% in PBS, 100 μL) was added to fix the cells and the cells were incubated at ambient temperature for 20 min without shaking.
# The cells were washed with a plate washer buffer to remove the formaldehyde solution. The plate was flicked to removed excess wash buffer and tapped onto paper towels. Quenching buffer (100 μL) was added to each well and the cells were incubated at ambient temperature for 20 minutes without shaking.
# The cells were washed with a plate washer buffer to remove the quenching buffer. Blocking buffer (100 μL) was added and the cells were incubated at ambient temperature for at least an hour with gentle shaking.
# The cells were washed with a plate washer buffer and diluted primary antibody (50 μL) was added to each well (blocking buffer was added to the negative control wells instead). The plates were incubated overnight at 4° C. with gentle shaking.
# The wash buffer was removed, diluted secondary antibody (100 μL) was added, and the cells were incubated at ambient temperature for 1 hour with gentle shaking. […]
row,Compound,IC50 [nM]
1,"Nc1nc(Nc2ccc3c(c2)C(=O)NCCCC3)n(-c2cc3c(nn2)-c2ccccc2CCC3)n1 [Compound 15, 1-(6,7-dihydro-5H-benzo[6,7]cyclohepta[1,2-c]pyridazin-3-yl)-N^5-(1(2H)-oxo-3,4,5,6-tetrahydrobenzo[c]azocin-9-yl)-1H-1,2,4-triazole-3,5-diamine]",1000 to 10000

# Same assay, conditions: Hela cells, Axl antibody cross-linking stimulation, phospho-Akt chemiluminescence normalized to cell number; compounds of formula (Ia), Table 1
row,Compound,IC50 [nM]
1,"CON=C1CCCc2ncc(Nc3nc(N)n(-c4cc5c(nn4)-c4ccccc4CCC5)n3)cc2CC1 (racemic) [Compound 8, 1-(6,7-dihydro-5H-benzo[6,7]cyclohepta[1,2-c]pyridazin-3-yl)-N^3-(7-(methoxyimino)-5,6,7,8,9,10-hexahydrocycloocta[b]pyridin-3-yl)-1H-1,2,4-triazole-3,5-diamine]",1000 to 10000
2,"Nc1nc(Nc2ccc3c(c2)CCC(=O)NCC3)nn1-c1cc2c(nn1)-c1ccccc1CCC2 [Compound 1, 1-(6,7-dihydro-5H-benzo[6,7]cyclohepta[1,2-c]pyridazin-3-yl)-N^3-(4(1H)-oxo-2,3,5,6-tetrahydrobenzo[d]azocin-8-yl)-1H-1,2,4-triazole-3,5-diamine]",< 1000
3,"Nc1nc(Nc2ccc3c(c2)CCCN(C2CCCC2)CC3)nn1-c1cc2c(nn1)-c1ccccc1CCC2 [Compound 2, 1-(6,7-dihydro-5H-benzo[6,7]cyclohepta[1,2-c]pyridazin-3-yl)-N^3-(3-cyclopentyl-1,2,3,4,5,6-hexahydrobenzo[d]azocin-8-yl)-1H-1,2,4-triazole-3,5-diamine]",1000 to 10000
4,"Nc1nc(Nc2ccc3c(c2)CCN(C2CCCC2)CCC3)nn1-c1cc2c(nn1)-c1ccccc1CCC2 [Compound 3, 1-(6,7-dihydro-5H-benzo[6,7]cyclohepta[1,2-c]pyridazin-3-yl)-N^3-(3-cyclopentyl-1,2,3,4,5,6-hexahydrobenzo[d]azocin-9-yl)-1H-1,2,4-triazole-3,5-diamine]",< 1000
5,"Nc1nc(Nc2ccc3c(c2)CC2CCC(C3)C2N2CCCC2)nn1-c1cc2c(nn1)-c1ccccc1CCC2 (centres unmarked) [Compound 4, 1-(6,7-dihydro-5H-benzo[6,7]cyclohepta[1,2-c]pyridazin-3-yl)-N^3-(7-pyrrolidin-1-yl-6,8-ethano-6,7,8,9-tetrahydro-5H-benzo[7]annulene-3-yl)-1H-1,2,4-triazole-3,5-diamine]",< 1000
6,"Nc1nc(Nc2ccc3c(c2)CC(N2CCCC2)CCCC3)nn1-c1cc2c(nn1)-c1ccccc1CCC2 (centres unmarked) [Compound 5, 1-(6,7-dihydro-5H-benzo[6,7]cyclohepta[1,2-c]pyridazin-3-yl)-N^3-(6-pyrrolidin-1-yl-5,6,7,8,9,10-hexahydrobenzo[8]annulene-3-yl)-1H-1,2,4-triazole-3,5-diamine]",1000 to 10000
7,"Nc1nc(Nc2cnc3c(c2)CCC(=O)CCC3)nn1-c1cc2c(nn1)-c1ccccc1CCC2 [Compound 6, 1-(6,7-dihydro-5H-benzo[6,7]cyclohepta[1,2-c]pyridazin-3-yl)-N^3-(7-oxo-5,6,8,9,10-pentahydrocycloocta[b]pyridin-3-yl)-1H-1,2,4-triazole-3,5-diamine]",< 1000
8,"Nc1nc(Nc2cnc3c(c2)CCC(N2CCCC2)CCC3)nn1-c1cc2c(nn1)-c1ccccc1CCC2 (centres unmarked) [Compound 7, 1-(6,7-dihydro-5H-benzo[6,7]cyclohepta[1,2-c]pyridazin-3-yl)-N^3-(7-(pyrrolidin-1-yl)-5,6,7,8,9,10-hexahydrocycloocta[b]pyridin-3-yl)-1H-1,2,4-triazole-3,5-diamine]",< 1000
9,"Nc1nc(Nc2cnc3c(c2)CCC(O)CCC3)nn1-c1cc2c(nn1)-c1ccccc1CCC2 (centres unmarked) [Compound 9, 1-(6,7-dihydro-5H-benzo[6,7]cyclohepta[1,2-c]pyridazin-3-yl)-N^3-(7-hydroxy-5,6,7,8,9,10-hexahydrocycloocta[b]pyridin-3-yl)-1H-1,2,4-triazole-3,5-diamine]",1000 to 10000
10,"Nc1nc(Nc2cnc3c(c2)CCC(=O)CCC3)nn1-c1cc(-c2ccncc2)c2c(n1)C1CCN2CC1 [Compound 10, 1-(1,4-ethano-8-pyridin-4-yl-1,2,3,4-tetrahydro-1,5-naphthyridin-6-yl)-N^3-(7-oxo-5,6,7,8,9,10-hexahydrocycloocta[b]pyridin-3-yl)-1H-1,2,4-triazole-3,5-diamine]",< 1000
11,"Nc1nc(Nc2ccc3c(c2)C(=O)NCCCC3)nn1-c1cc2c(nn1)-c1ccccc1CCC2 [Compound 11, 1-(6,7-dihydro-5H-benzo[6,7]cyclohepta[1,2-c]pyridazin-3-yl)-N^3-(1(2H)-oxo-3,4,5,6-tetrahydrobenzo[c]azocin-9-yl)-1H-1,2,4-triazole-3,5-diamine]",1000 to 10000
12,"Nc1nc(Nc2ccc3c(c2)CNCCCC3)nn1-c1cc2c(nn1)-c1ccccc1CCC2 [Compound 13, 1-(6,7-dihydro-5H-benzo[6,7]cyclohepta[1,2-c]pyridazin-3-yl)-N^3-(1,2,3,4,5,6-hexahydrobenzo[c]azocin-9-yl)-1H-1,2,4-triazole-3,5-diamine]",1000 to 10000
13,"Nc1nc(Nc2ccc3c(c2)CCC2(CC3)OCCO2)nn1-c1ncnc2c1CCCCCC2 [Compound 14, 1-(5,6,7,8,9,10-hexahydrocycloocta[d]pyrimidin-4-yl)-N^3-(5,6,8,9-tetrahydrospiro[benzo[7]annulene-7,2′-[1,3]dioxolane]-3-yl)-1H-1,2,4-triazole-3,5-diamine]",1000 to 10000
